Data: patent US20080182125A1, “Cationic latex as a carrier for bioactive ingredients and its use in wallboard manufacture” (priority 2006, published 2008)
Where two headings read alike, the source gives them in different places.

Columns and labels:
[1] = Solubility of additives used in polymerization; format: physicochemical
[2] = system: fungal species; test: ASTM D-3273 second round test of coated paper, 28 days, spores in humidity chamber; format: cell-based; details: increased coating thickness, FIG. 6
Method: FIG. 6 is a graph showing the results of a second round of testing of coated paper samples, tested according to ASTM D-3273 over a period of 28 days. In this study, the fungal species were not directly inoculated on the surface, but rather, were maintained in the humidity chamber as spores that would then land on the surface of the coated paper.
A second round of testing was performed using an increased coating thickness to ensure full coverage of the paper surface. The second round of testing of the coated paper samples were tested according to ASTM D-3273. In this study, the duration remained the same (28 days), but the fungal species were not directly inoculated on the surface. Rather, they were maintained in the humidity chamber as spores that would then land on the surface of the coated paper as in a real world example. The results of this study are outlined in FIG. 6.

[3] = system: fungal species; test: 30-III fungal test on 1"X1" chip of dried latex, 7 days; format: cell-based; details: 7 day incubation, FIG. 5
Text: FIG. 5 is a graph showing the results of a 30-III fungal test, based on making a 1″X1″ chip of the dried latex, inoculating the fungal species directly on to the sample, and then observing its growth after 7 days.
The 30-III fungal test was based on making a 1″X1″ chip of the dried latex and inoculating the fungal species directly on to the sample and then observing its growth after 7 days.

[4] = Stability of additive under polymerization conditions; format: physicochemical; details: incorporated in relatively high amounts
Text: Ideally, the materials are substantially unreactive during the polymerization conditions, so they are not degraded during polymerization. In some embodiments, low levels of additive might be observed, whether due to degradation, or difficulty in extraction from the polymer latex. In any case, retention of the additive in the latex leads to retention of antifungal properties in the finished paper.
The polymerization temperature was investigated as a potential contributor to degradation, and it was kept as low as was feasible (typically <70° C.). The samples were stripped at the end of polymerization to the desired solids content.

[5] = additives used in polymerization, solubility in monomer or water

Compound	Solubility [1, 5]	Antifungal effectiveness, ASTM D-3273 [2]	Fungal inhibition, 30-III test [3]	other results
Cc1ccc(S(=O)(=O)C(I)I)cc1 [Amical AF, Diiodomethyltoluyl sulfone]	Limited	effective	some fungal inhibition	Degradation during polymerization [4]: degraded
[Na+].[O-]c1ccccc1-c1ccccc1 [Microban P2, Sodium orthophenyl phenate]	Solid. Water			
CCCC1COC(Cn2cncn2)(c2ccc(Cl)cc2Cl)O1 (stereo not shown) [Microban PZ, Propiconazole]				Solubility [1]: Fairly soluble
CC(C)(C)C(O)(CCc1ccc(Cl)cc1)Cn1cncn1 (stereo not shown) [Microban TZ, Tebuconazole]	Fairly soluble			
Oc1cc(Cl)ccc1Oc1ccc(Cl)cc1Cl [Triclosan, Chlorodiphenyl ether]	Solid. Fairly			
Zinc pyrithione [Microban Z01]		did not perform well	performed well	
